Earlier results, collected in patent US7354906B2, “Composition of anti-HIV drugs and anti-cortisol compounds and method for decreasing the side effects of anti-HIV drugs in a human” (Samaritan Pharmaceuticals, Inc., priority 1999, dated 2008).

Columns and labels:
[1] = AZT recipients
[2] = hydrochloride salt
[3] = 50 mg per day for 6 months, age advanced humans
[4] = human, 20 mg/kg/day, four weeks, no increase in caloric intake

Cc1cn([C@H]2C[C@H](N=[N+]=[N-])[C@@H](CO)O2)c(=O)[nH]c1=O [AZT, 3′-azido-3′-deoxythymidine]
recipients who develop anemia [1]: 24%

CCN(CC)CCOC(=O)c1ccc(N)cc1.Cl [Procaine hydrochloride, 2-diethylaminoethyl p-aminobenzoate hydrochloride]
solubility [2]: soluble in water and alcohol, but much less soluble in organic solvents

C[C@]12CC[C@H](O)CC1=CC[C@@H]1[C@@H]2CC[C@]2(C)C(=O)CC[C@@H]12 [DHEA, Dehydroepiandrosterone]
bioavailable IGF-1 [3]: induced an increase
safety of DHEA dosages (dosages as high as 1.6 gm/day): safe and without side effects
mean serum total cholesterol levels (men, 1600 mg/day for 28 days): fall
mean percent body fat decrease (men, 1600 mg/day for 28 days, no change in weight): 31%

CC(C)Oc1ccc2c(=O)c(-c3ccccc3)coc2c1 [Ipriflavone, 7-isoproxy-isoflavone]
increase in body weight [4]: about 5 pounds
